These results are taken from patent US11008313B2, “Substituted 1-methyl-1,2,3,4-tetrahydroisoquinoline molecules as PCSK9 allosteric binders” (Merck Sharp & Dohme Corp., priority 2016, dated 2021).

SMILES strings stand for the structures. Read-outs that look alike come from different tables or passages of the source.

Assay [1] deals with T1, PCSK9 (Homo sapiens, UniProt Q8NBP7). The experiment in a line: Fluorescence polarization competition binding assay (probe: compound of Example 57). The note with it: 2 μM PCSK9, 50 nM compound of Example 57 as probe, overnight incubation; read-out: FP IC. In short, it runs like this:
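Competition fluorescence-polarization binding: 2 μM PCSK9 with 50 nM fluorescent probe in 20 mM HEPES pH 7.5, 150 mM NaCl, 1 mM CaCl2, 0.005% P-20, incubated with test compound overnight in the dark. Anisotropy read; % inhibition relative to DMSO wells and probe-without-PCSK9 wells.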
On the technique in general: Polarisation of emitted light reports the rotation of a fluorescent probe.

Assay [2] addresses T2, HEK293 cells stably overexpressing PCSK9 (Homo sapiens, UniProt Q8NBP7).
T2 construct: expressed in transfected cells
The experiment in a line: Protein degradation assay (Western Blot/Sally Sue assay). To be noted: 24 hrs compound treatment, serum free DMEM. The assay is classed as cell-based. The method, then: Samples were run on the Sally Simple Western system from ProteinSimple (San Jose, Calif.) using default assay conditions. Briefly, 5×10^4 HEK293 cells stably overexpressing PCSK9 were seeded into Collagen I coated 96 well plates and allowed to recover overnight at 37° C. with 5% CO2. After 24 hrs of compound treatment in serum free DMEM cell culture medium, cells were washed with PBS and lysed in 100 ul RIPA buffer (Teknova) supplemented with protease inhibitors and subsequently mixed with fluorescent standards as per manufacturer's specifications, followed by denaturation at 95° C. for 5 minutes. Anti-PCSK9 mAb antibody (Abbomax, Cat. No. 601-650) was used for PCSK9 detection. The reported DC50 values represent the effective concentration of compound to lower PCSK9 protein levels, pro and mature, by 50%.

The target of assay [3] is T1, PCSK9. The assay is described as follows: Differential scanning calorimetry (DSC) assay, direct binding / thermal stabilization of PCSK9. The note with it: Tm(with compound)−Tm(no compound); 2 μM PCSK9, 300 μM test compound. An outline of the steps:
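Thermal stabilization of 2 μM PCSK9 with or without 300 μM compound in 25 mM HEPES pH 7.5, 150 mM NaCl, 1 mM CaCl2, 3.75% DMSO. Sample heated 20–80 °C at 200 °C/hr against buffer reference. Protein Tm derived from each thermogram.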
A general note: Differential scanning calorimetry records heat flow against a reference as temperature is scanned.

The mark [4] stands for this setting: mature PCSK9 protein level lowered by 50%, read-out: PCSK9 DC50 (Mature).
The mark [5] stands for this setting: pro PCSK9 protein level lowered by 50%, read-out: PCSK9 DC50 (Pro).

For orientation: DC50 means the concentration at which degradation of the target reaches its halfway point. In general, ΔTm refers to the change in melting temperature against a reference sample.

T1 sequence (Q8NBP7 153-692): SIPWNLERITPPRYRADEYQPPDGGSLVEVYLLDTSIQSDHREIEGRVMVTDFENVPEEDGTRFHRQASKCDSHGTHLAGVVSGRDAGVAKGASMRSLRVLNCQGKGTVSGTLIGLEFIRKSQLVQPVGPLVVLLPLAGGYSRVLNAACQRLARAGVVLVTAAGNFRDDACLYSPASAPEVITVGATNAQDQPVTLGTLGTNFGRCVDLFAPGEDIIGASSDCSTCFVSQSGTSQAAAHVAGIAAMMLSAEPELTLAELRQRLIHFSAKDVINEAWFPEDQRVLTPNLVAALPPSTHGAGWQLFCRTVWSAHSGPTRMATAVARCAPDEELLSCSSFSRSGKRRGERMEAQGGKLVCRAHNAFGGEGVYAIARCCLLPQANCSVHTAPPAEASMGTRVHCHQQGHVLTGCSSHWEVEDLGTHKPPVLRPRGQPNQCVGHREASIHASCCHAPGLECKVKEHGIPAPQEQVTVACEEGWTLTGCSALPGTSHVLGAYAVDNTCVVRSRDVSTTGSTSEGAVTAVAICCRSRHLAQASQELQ

For `CC(C)(C)OC(=O)/N=C(/NCCC[C@@H](NC(=O)OC(C)(C)C)C(=O)NCCOCCOc1cc2c(cc1Oc1ccc(-c3ccc(C(=O)O)cc3)c(F)c1)[C@@](C)(CC(=O)Nc1nccs1)NCC2)NC(=O)OC(C)(C)C` [Example 106, 4′-(((R)-6-(((R,Z)-6,11-bis((tert-butoxycarbonyl)amino)-2,2-dimethyl-4,12-dioxo-3,16-dioxa-5,7,13-triazaoctadec-5-en-18-yl)oxy)-1-methyl-1-(2-oxo-2-(thiazol-2-ylamino)ethyl)-1,2,3,4-tetrahydroisoquinolin-7-yl)oxy)-2′-fluoro-[1,1′-biphenyl]-4-carboxylic acid], the IC50 on PCSK9 [1] turned out to be 655 nM. Moreover, the values for the DC50 in assay [2] (setting [4]) and in assay [2] (setting [5]) were 3420 nM and 4820 nM, respectively.

Regarding `COCCOc1cc2c(cc1Oc1ccc(-c3ccc(C(=O)O)cc3)c(F)c1)[C@@](C)(CC(=O)Nc1nccs1)NCC2` [Example 101, (R)-2′-fluoro-4′-((6-(2-methoxyethoxy)-1-methyl-1-(2-oxo-2-(thiazol-2-ylamino)ethyl)-1,2,3,4-tetrahydroisoquinolin-7-yl)oxy)-[1,1′-biphenyl]-4-carboxylic acid], the IC50 at PCSK9 [1] stood at 130 nM. Further, the “PCSK9 DC50 (Mature) μM” value in assay [2] (mature PCSK9 protein level lowered by 50%) was “inactive”. The “PCSK9 DC50 (Pro) μM” value in assay [2] (pro PCSK9 protein level lowered by 50%) is given as “Inactive”.

In the case of `C[C@]1(CC(=O)Nc2nccs2)NCCc2cc(OCCOCCOCCOCCNC(=O)CC34CC5CC(CC(C5)C3)C4)c(Oc3ccc(-c4ccc(C(=O)O)cc4)c(F)c3)cc21` [Example 96], on PCSK9 [1], the IC50 was determined as 110 nM. Besides, the results for the DC50 in assay [2] (setting [4]) and in assay [2] (setting [5]) were 1050 nM and 6550 nM, respectively.

Take `COc1cc2c(cc1Oc1ccc(-c3ccc(C(=O)O)cc3F)c(F)c1)[C@@](C)(CC(=O)Nc1nccs1)NCC2` [Example 25, (R)-2,2′-difluoro-4′-((6-methoxy-1-methyl-1-(2-oxo-2-(thiazol-2-ylamino)ethyl)-1,2,3,4-tetrahydroisoquinolin-7-yl)oxy)-[1,1′-biphenyl]-4-carboxylic acid]: the IC50 on PCSK9 [1] turned out to be 302 nM. For the same compound, at PCSK9 [3], the ΔTm at 300 µM turned out to be 6.6 °C.

On to `COCCOCc1cn(CCOc2cc3c(cc2Oc2ccc(C(=O)O)c(F)c2)[C@@](C)(CC(=O)Nc2nccs2)NCC3)nn1` [Example 41, (R)-2-fluoro-4-((6-(2-(4-((2-methoxyethoxy)methyl)-1H-1,2,3-triazol-1-yl)ethoxy)-1-methyl-1-(2-oxo-2-(thiazol-2-ylamino)ethyl)-1,2,3,4-tetrahydroisoquinolin-7-yl)oxy)benzoic acid], for which the IC50 at PCSK9 [1] worked out at 354 nM. On PCSK9 [3], the thermal shift (ΔTm) at 300 µM was determined as 7.18 °C.

`COc1cc2c(cc1Oc1ccc(-c3ccc(C(=O)O)cc3F)cc1)[C@@](C)(CC(=O)Nc1nccs1)NCC2` [Example 29, (R)-2-fluoro-4′-((6-methoxy-1-methyl-1-(2-oxo-2-(thiazol-2-ylamino)ethyl)-1,2,3,4-tetrahydroisoquinolin-7-yl)oxy)-[1,1′-biphenyl]-4-carboxylic acid]: the IC50 at PCSK9 [1] came out at 416 nM. Further, the ΔTm at 300 µM on PCSK9 [3] amounted to 5.37 °C.

Take `COc1cc2c(cc1Oc1ccc(-c3ccc(C(=O)O)cc3F)nc1)[C@@](C)(CC(=O)Nc1nccs1)NCC2` [Example 33, (R)-3-fluoro-4-(5-((6-methoxy-1-methyl-1-(2-oxo-2-(thiazol-2-ylamino)ethyl)-1,2,3,4-tetrahydroisoquinolin-7-yl)oxy)pyridin-2-yl)benzoic acid]: the IC50 on PCSK9 [1] was found to be 560 nM. The thermal shift (ΔTm) at 300 µM on PCSK9 [3] was 5.2 °C.

Regarding `C[C@]1(CC(=O)Nc2nccs2)NCCc2cc(OCC3CCCCO3)c(Oc3ccc(-c4ccc(C(=O)O)cc4)c(F)c3)cc21` (stereo partly drawn) [Example 23, 2′-fluoro-4′-(((1R)-1-methyl-1-(2-oxo-2-(thiazol-2-ylamino)ethyl)-6-((tetrahydro-2H-pyran-2-yl)methoxy)-1,2,3,4-tetrahydroisoquinolin-7-yl)oxy)-[1,1′-biphenyl]-4-carboxylic acid], the IC50 on PCSK9 [1] was determined as 228 nM. Also, the thermal shift (ΔTm) at 300 µM at PCSK9 [3] amounted to 8.71 °C.

Turning to `C[C@]1(CC(=O)Nc2nccs2)NCCc2cc(OCC3CCCCO3)c(Oc3cccc(F)c3)cc21` (single isomer, unassigned) [Example 80, 2-((1R)-7-(3-fluorophenoxy)-1-methyl-6-(((R or S)-tetrahydro-2H-pyran-2-yl)methoxy)-1,2,3,4-tetrahydroisoquinolin-1-yl)-N-(thiazol-2-yl)acetamide], on PCSK9 [1], the IC50 came out at 550 nM. Moreover, on PCSK9 [3], the ΔTm at 300 µM is 6.09 °C.

As for `Cc1ccc(-c2cn(CCOc3cc4c(cc3Oc3ccc(C(=O)O)c(F)c3)[C@@](C)(CC(=O)Nc3nccs3)NCC4)nn2)cn1` [Example 45, (R)-2-fluoro-4-((1-methyl-6-(2-(4-(6-methylpyridin-3-yl)-1H-1,2,3-triazol-1-yl)ethoxy)-1-(2-oxo-2-(thiazol-2-ylamino)ethyl)-1,2,3,4-tetrahydroisoquinolin-7-yl)oxy)benzoic acid], the IC50 on PCSK9 [1] is 530 nM. On PCSK9 [3], the ΔTm at 300 µM stood at 6.96 °C.

Regarding `COC(=O)C1(c2ccc(-c3ccc(Oc4cc5c(cc4OC)CCN[C@]5(C)CC(=O)Nc4nccs4)cn3)cc2)CC1` [Example 15, methyl (R)-1-(4-(5-((6-methoxy-1-methyl-1-(2-oxo-2-(thiazol-2-ylamino)ethyl)-1,2,3,4-tetrahydroisoquinolin-7-yl)oxy)pyridin-2-yl)phenyl)cyclopropane-1-carboxylate], the IC50 on PCSK9 [1] turned out to be 3.76 nM. The ΔTm at 300 µM on PCSK9 [3] is 3.31 °C.

On to `COC(=O)c1cc(-c2cc3c(cc2OC)CCN[C@]3(C)CC(=O)Nc2nccs2)ccc1F` [Example 109, methyl (R)-2-fluoro-5-(6-methoxy-1-methyl-1-(2-oxo-2-(thiazol-2-ylamino)ethyl)-1,2,3,4-tetrahydroisoquinolin-7-yl)benzoate], for which the IC50 on PCSK9 [1] was 664 nM. Besides, the shift in melting temperature (ΔTm) at 300 µM at PCSK9 [3] stood at 6.02 °C.

For `COc1cccc(NC(=O)C[C@@]2(C)NCCc3cc(OCC4CCCCO4)c(Oc4ccc(-c5ccc(C(=O)O)cc5)c(F)c4)cc32)c1` (some centres unmarked) [Example 85], the IC50 at PCSK9 [1] came to 170 nM. On PCSK9 [3], the ΔTm at 300 µM is 9.62 °C.

As to `COc1cc2c(cc1Oc1ccc(-c3ccc(C(=O)O)cc3)cc1)[C@@](C)(CC(=O)Nc1nccs1)NCC2` [Example 34, (R)-4′-((6-methoxy-1-methyl-1-(2-oxo-2-(thiazol-2-ylamino)ethyl)-l,2,3,4-tetrahydroisoquinolin-7-yl)oxy)-[1,1′-biphenyl]-4-carboxylic acid], the IC50 on PCSK9 [1] was determined as 667 nM. For the same compound, at PCSK9 [3], the “DSC ΔTm” value came to 5.5 °C.

Turning to `COc1cc2c(cc1Oc1ccc(-c3ccc(C(=O)O)c(F)c3)c(F)c1)[C@@](C)(CC(=O)Nc1nccs1)NCC2` [Example 27, (R)-2′,3-difluoro-4′-((6-methoxy-1-methyl-1-(2-oxo-2-(thiazol-2-ylamino)ethyl)-1,2,3,4-tetrahydroisoquinolin-7-yl)oxy)-[1,1′-biphenyl]-4-carboxylic acid], the IC50 at PCSK9 [1] came out at 386 nM. Besides, the ΔTm at 300 µM on PCSK9 [3] turned out to be 7.11 °C.

Turning to `C[C@]1(CC(=O)Nc2nccs2)NCCc2cc(OCC3CCCO3)c(Oc3ccc(-c4ccc(C(=O)O)cc4)c(F)c3)cc21` (some centres unmarked) [Example 13], the IC50 at PCSK9 [1] was determined as 99.3 nM. The ΔTm at 300 µM at PCSK9 [3] came to 8.4 °C.

In the case of `COC(=O)c1ccc(Oc2cc3c(cc2OCc2ncccn2)CCN[C@]3(C)CC(=O)Nc2nccs2)cc1F` [Example 71, methyl (R)-2-fluoro-4-((1-methyl-1-(2-oxo-2-(thiazol-2-ylamino)ethyl)-6-(pyrimidin-2-ylmethoxy)-1,2,3,4-tetrahydroisoquinolin-7-yl)oxy)benzoate], the IC50 at PCSK9 [1] was determined as 645 nM. Moreover, the ΔTm at 300 µM at PCSK9 [3] came to 6.36 °C.

For `Cc1ccc(C2C(C(=O)O)c3ccccc3C(=O)N2c2cccc(-c3cn(CCOc4cc5c(cc4Oc4ccc(C(=O)O)c(F)c4)[C@@](C)(CC(=O)Nc4nccs4)NCC5)nn3)c2)cc1` (stereo partly drawn) [Example 54, 2-(3-(1-(2-(((R)-7-(4-carboxy-3-fluorophenoxy)-1-methyl-1-(2-oxo-2-(thiazol-2-ylamino)ethyl)-1,2,3,4-tetrahydroisoquinolin-6-yl)oxy)ethyl)-1H-1,2,3-triazol-4-yl)phenyl)-1-oxo-3-(p-tolyl)-1,2,3,4-tetrahydroisoquinoline-4-carboxylic acid], the IC50 at PCSK9 [1] was 837 nM. Further, the “DSC ΔTm” value at PCSK9 [3] was 5.98 °C.

`COc1cc2c(cc1Oc1cc(F)c(C(=O)O)c(F)c1)[C@@](C)(CC(=O)Nc1nccs1)NCC2` [Example 5, (R)-2,6-difluoro-4-((6-methoxy-1-methyl-1-(2-oxo-2-(thiazol-2-ylamino)ethyl)-1,2,3,4-tetrahydroisoquinolin-7-yl)oxy)benzoic acid]: the IC50 at PCSK9 [1] is 561 nM. For the same compound, the ΔTm at 300 µM on PCSK9 [3] came out at 6.99 °C.
